Source: article PMC9464622, “The collectin SP-A and its trimeric recombinant fragment protect alveolar epithelial cells from the cytotoxic and proinflammatory effects of human cathelicidin in vitro” (Frontiers in Immunology, 2022)

Columns and labels:
[1] = Circular dichroism: secondary structure with and without bacterial lipid vesicles; assay type: physicochemical; conditions: far-UV CD, 25°C, 5 mM Tris-HCl, 150 mM NaCl pH 7.4; 100 µg/ml LL-37, 75 µg/ml SP-A or rfhSP-A; mixture compared with sum of individual spectra
Method: Circular dichroism (CD) spectra were obtained on a Jasco J-715 spectropolarimeter fitted with a 150 W xenon lamp ([38]). Quartz cells with a 0.1 cm optical path length were used, and the spectra were recorded in the far-UV region (190-260 nm) with a scanning speed of 50 nm/minute at 25°C. Four scans were accumulated and averaged for each spectrum. The acquired spectra were corrected by subtracting the appropriate blanks, subjected to noise reduction analysis, and presented as molar ellipticities (degrees cm2 dmol-1) assuming 110 Da as the average molecular mass per amino acid residue. At least three independent preparations of LL-37, SP-A, and rfhSP-A were measured. Spectra Manager Software (Jasco version 1.53) was used.
Two types of lipid vesicles were used: vesicles mimicking the bacterial cell wall (Re-LPS/BPL at a ratio of 08:02 by weight), and vesicles of bacterial inner membrane phospholipids (BPL). The final concentrations were 100 μg/ml (22.2 μM) for LL-37, 75 μg/ml (0.11 μM) for SP-A, and 75 μg/ml (1.3 μM) for rfhSP-A, in a final volume of 200 μl of 5 mM Tris-HCl, NaCl 150 mM, pH 7.4 buffer.
Vesicles mimicking the inner membrane of Gram-negative bacteria were prepared by mixing POPE, POPG, and CL at weight ratios of 67:23:10. […]

[2] = LPS vesicle aggregation assay (turbidity, DLS); assay type: biochemical, Salmonella enterica serotype Minnesota; conditions: Re-LPS/BPL 50 µg/ml, 75 nM SP-A, 1.1 µM LL-37, 0.43 µM rfhSP-A, 37°C
Method: Vesicles mimicking the inner membrane of Gram-negative bacteria were prepared by mixing POPE, POPG, and CL at weight ratios of 67:23:10. Alternatively, vesicles mimicking bacterial outer membrane were prepared by adding ReLPS to the POPE/POPG/CL mixture (BPL, bacterial phospholipids) at a weight ratio of 8:2, as previously reported ([25]). Multilamellar vesicles and large unilamellar vesicles of DPPC and surfactant-like vesicles composed of DPPC, POPG, and palmitic acid (PA) (at weight ratios of 23:10:1.6) were prepared as previously reported ([28], [33]–[35], [39]).
Turbidity measurements: The effects of SP-A, rfhSP-A, and calcium on the aggregation of LPS vesicles that mimic bacterial outer membranes were studied in the absence and presence of LL-37 by measuring the change in absorbance at 400 nm in a Beckman DU-800 spectrophotometer ([28], [39]). Briefly, LPS vesicles (50 μg/ml) were added to both the sample and the reference cuvettes in 5 mM Tris-HCl and 150 mM NaCl 0.1 mM EDTA buffer, pH 7.4. After 10 min equilibration at 37°C, either human SP-A, rfhSP-A, LL-37, or combinations thereof was added to the sample cuvette, and the change in optical density at 400 nm was monitored. Next, 2.5 mM Ca^2+ was added to both the sample and reference cuvettes, and the change in absorbance was monitored again. Aggregation of surfactant phospholipid vesicles was performed in the same way. […]

K. pneumoniae = assay: Bacterial membrane permeabilization, Sytox Green; assay type: cell-based, Klebsiella pneumoniae; conditions: 2.2 µM LL-37, 0.075 µM SP-A, 0.4 µM rfhSP-A, PBS pH 7.4, 37°C; three independent experiments
Method: The ability of LL-37, SP-A, rfhSP-A, and combinations thereof to permeabilize the outer and cytoplasmic bacterial membranes was studied in live bacteria by quantifying the internalization of the impermeant fluorescent Sytox Green, since its fluorescence increases when binding to bacterial DNA. For the measurement of Sytox Green influx, the probe (1 μM) was added to 1 ml of bacterial suspension (2x10^7 CFU/ml) in PBS and the sample was incubated for 15 min in darkness at room temperature as described in ([25]). Then, the fluorescence of the Sytox Green/bacterial suspension mixture was monitored for 4 hours in a FLUOstar Omega microplate reader (BMG LabTechnologies, Ortenberg, Germany) at excitation and emission wavelengths of 485 and 520 nm, respectively. PBS was used as a negative control, whereas ethanol (70%) was used as a positive control. Background fluorescence was measured in non-labeled bacteria.

K. pneumoniae K2 [3] = assay: Transmission electron microscopy of bacteria; assay type: cell-based, Klebsiella pneumoniae; conditions: LL-37 55.5 µM, SP-A 0.3 µM, rfhSP-A 1.5 µM, 30 min 37°C PBS; TEM
Method: The effect of LL-37, SP-A, rfhSP-A, and combinations thereof on the ultrastructure of K. pneumoniae was visualized by means of transmission electron microscopy, as described in ([25]). […] Cells were spun down and PBS medium was removed. Cell pellets were then chemically fixed with 4% paraformaldehyde and 2.5% glutaraldehyde for 4 h at 4°C and washed three times with PBS. Next, bacteria were post-fixed with 1% osmium tetroxide for 1 h. Samples were then washed thrice with bi-distilled water and dehydrated using sequential exposure to acetone concentrations ranging from 30% to 100% for 15 min at room temperature. Next, infiltration and embedding were performed using Spurr’s resin. The samples were sectioned using an ultramicrotome with a diamond knife and were mounted on copper grids. Samples were examined on a JEOL JEM 1010 electron microscope (JEOL, Tokyo, Japan).

A549 cells = assay: LL-37-induced IL-8 secretion (ELISA); assay type: cell-based, human; conditions: A-438079 10 µM, 15 min pre-treatment; LL-37 15 µM, 24 h
Method: A549 cells were seeded to a density of 50,000 cells per well in a 96-well tissue culture plate for 18 h in RPMI 1640 medium supplemented with antibiotics, 2 mM L-glutamine, and 5% FBS.
Secreted IL-8 was quantified in supernatants of A549 cells by ELISA (R&D Systems) following the supplier instructions. Briefly, anti-human IL-8 was coated on a 96-well Nunc-Immuno Plate MaxiSorp Surface (Thermo Scientific, Waltham, MA) in PBS overnight. After blocking with PBS and 10% FBS, and extensive washing, samples and standards were incubated for 2 h at room temperature. IL-8 cytokine was detected with biotinylated detection antibody and streptavidin-HRP. The colorimetric reaction was developed with tetramethylbenzidine (BD Biosciences, San Diego, CA) and was stopped with 4 M sulfuric acid. The absorbance at 450 nm was read on an ELISA reader (RT-6100 plate reader, Rayto Life and Analytical Sciences, Shenzhen, China).

[4] = system: alveolar epithelial cells; conditions: cited from earlier work
From the text: (§1) The host appears to protect its own cells from LL-37 cytotoxicity by several mechanisms. […] In addition, the C1q globular head receptor (gC1qR, also known as p33) protects ...

influenza A virus = conditions: cited from earlier work
From the text: as §1

[5] = system: nontypeable Haemophilus influenzae; assay: Bacterial killing assay, NTHi; conditions: 10^5 CFU/ml, PBS + 1% TSB, 1 h 37°C; SP-A 0.025 µM, rfhSP-A 0.15 µM; increasing LL-37
Method: (§2) Klebsiella pneumoniae 52145 (serotype K2:O1), nontypeable Haemophilus influenzae strain 375 (NTHi), and P. aeruginosa (PAO1) are clinical isolates, as previously described ([40]–[42]). P. aeruginosa, and K. pneumoniae K2 were grown in Luria–Bertani (LB) broth at 37°C with continuous shaking to the exponential phase. Frozen stocks of NTHi strains were thawed and then grown on chocolate agar plates during 18 h at 37°C in a humidified 5% CO2 atmosphere. Then, NTHi were grown to the exponential phase on brain heart infusion broth (BHI) supplemented with 10 µg/ml hemin and 10 µg/ml β-nicotinamide adenine dinucleotide (β-NAD) (sBHI) with continuous shaking at 37°C in a humidified 5% CO^2 atmosphere. Exponential-phase bacteria were then harvested by centrifugation at 500 g for 10 min, resuspended in PBS, and adjusted to the desired final concentration, as described in ([24]).
(§3) The microbicidal activity of LL-37 in the presence of SP-A or rfhSP-A was evaluated by colony counts on plate assays ([24], [25]). […] Viable bacteria were enumerated by colony count and results were expressed as a percentage of relative survival in comparison to untreated bacteria.

K. pneumoniae K2 [6] = assay: Bacterial killing assay, K. pneumoniae; conditions: 10^5 CFU/ml, PBS, 1 h 37°C; SP-A 0.11 µM, rfhSP-A 0.7 µM; increasing LL-37; CFU counting
Method: as §2, §3

P. aeruginosa = assay: Bacterial killing assay, P. aeruginosa; conditions: 10^5 CFU/ml, PBS, 1 h 37°C; SP-A 0.012 µM, rfhSP-A 0.075 µM; increasing LL-37
Method: as §2, §3

[7] = cited from earlier work
From the text: The host appears to protect its own cells from LL-37 cytotoxicity by several mechanisms.

human endothelial cells = conditions: cited from earlier work
From the text: as §1

| Compound | CD spectrum / change in α-helical content [1] | LPS vesicle aggregation (scattered light), with calcium ([2]; 2.5 mM Ca2+, pH 7.4) | LPS vesicle turbidity (400 nm), no calcium ([2]; pH 7.4, before Ca2+) | Sytox Green permeabilization of K. pneumoniae (K. pneumoniae) | effect on ultrastructure of K. pneumoniae (K. pneumoniae K2 [3]) | IL-8 release, A549, with P2X7 inhibitor (A549 cells) | effect on human β-defensin 3 cytotoxicity on alveolar epithelial cells [4] | antiviral activity against influenza A virus, LL-37 with SP-A (influenza A virus) | effect on antibacterial activity of LL-37 against NTHi [5] | effect on antibacterial activity of LL-37 against K. pneumoniae (K. pneumoniae K2 [6]) | effect on antibacterial activity of LL-37 against P. aeruginosa (P. aeruginosa) | effect on antimicrobial activity of LL-37 [7] | effect on LL-37 cytotoxicity on human endothelial cells (human endothelial cells) |
| --- | --- | --- | --- | --- | --- | --- | --- | --- | --- | --- | --- | --- | --- |
| SP-A: Human surfactant protein A isolated from bronchoalveolar lavage fluid of patients with alveolar proteinosis | marked decrease of negative ellipticity without any shift of the minimum at 207 nm | greatly increased | did not affect sample turbidity | did not affect the fluorescence of the dye | did not cause any perturbation of the bacterial cell wall | not observed in the presence of the P2X7 inhibitor | reduced cytotoxicity on alveolar epithelial cells | additive antiviral activity against influenza A virus | neither SP-A nor rfhSP-A modifies the antibacterial activity of LL-37 | neither SP-A nor rfhSP-A modifies the antibacterial activity of LL-37 | neither SP-A nor rfhSP-A modifies the antibacterial activity of LL-37 | – | – |
| apolipoprotein A-I: HDL apolipoprotein A-I | – | – | – | – | – | – | – | – | – | – | – | reduces the antimicrobial activity of LL-37 | reduces the cytotoxicity of LL-37 on human endothelial cells |
| Clc1cccc(-c2nnnn2Cc2cccnc2)c1Cl [A-438079, reference compound] | – | – | – | – | – | decreased LL-37-induced IL-8 secretion | – | – | – | – | – | – | – |
